Results taken from ChEMBL document CHEMBL2385065, “Antiproliferative homoscalarane sesterterpenes from two Madagascan sponges” (Bioorg Med Chem, 2013).

Legend:
Assay type in all cases: functional, cell-based
[1] = Cytotoxicity against human H522-T1 cells after 96 hrs by CellTire-Glo luminescent assay; details: H522-T1, 96 h
[2] = system: A2780; assay: Cytotoxicity against human A2780 cells after 2 days by alamar Blue assay; details: A2780, 48 h
[3] = system: A2058; assay: Cytotoxicity against human A2058 cells after 96 hrs by CellTire-Glo luminescent assay; details: A2058, 96 h

Structure (SMILES)	IC50 [1]	IC50 [2]	IC50 [3]
CC(=O)C1=CC[C@H]2[C@]3(C)CC[C@H]4C(C)(C)CCC[C@]4(CO)[C@H]3C[C@H](O)[C@]2(C)[C@@H]1C=O (relative stereo)	1700 nM	260 nM	1830 nM
CC(=O)O[C@H]1C[C@H]2[C@@](C)(CC[C@H]3C(C)(C)CCC[C@@]32CO)[C@@H]2CC=C(C(C)=O)[C@H](C=O)[C@@]12C		650 nM	
CC(=O)C1=CC[C@H]2[C@]3(C)CC[C@H]4C(C)(C)CCC[C@]4(CO)[C@H]3C[C@@H](O)[C@]2(C)[C@H]1C=O (relative stereo)	610 nM	280 nM	> 370 nM
CC1(O)OC(=O)C2=C1CC[C@H]1[C@]3(C)CC[C@H]4C(C)(C)CCC[C@]4(CO)[C@H]3C[C@@H](O)[C@]21C (stereo partly specified)	> 10000 nM	8700 nM	> 10000 nM
CC(=O)O[C@H]1C(=O)[C@@]2(C)[C@H]([C@H](OC(=O)c3ccccc3)[C@]3(O)C[C@H](OC(=O)[C@H](O)[C@@H](NC(=O)c4ccccc4)c4ccccc4)C(C)=C1C3(C)C)[C@]1(OC(C)=O)CO[C@@H]1C[C@@H]2O [PACLITAXEL]	8.1 nM	12 nM	4.7 nM
CC1(C)CCC[C@@]2(CO)[C@H]1CC[C@]1(C)[C@@H]2C[C@@H](O)[C@]2(C)[C@H]3C=CC(=O)C3=CC[C@@H]12 (relative stereo)	5280 nM	4500 nM	4170 nM
